Data set [1] concerns GABAA receptor. Kind of data set: Whole-cell patch recording of post-synaptic currents in cultured hESC-derived neurons and co-cultured human fetal cortical neurons. The class given is cell-based. The source says: The patch electrodes were made from borosilicate glass capillaries (B-120-69-15, Sutter Instruments) with a resistance in the range of 5-7 MΩ. The pipettes were tip-filled with internal solution containing (in mM): 125 K-gluconate, 15 KCl, 10 HEPES, 4 MgCl2, 4 Na2ATP, 0.3 Na3GTP, 10 Tris-phosphocreatine, 0.2 EGTA.
(§1) For cultured neurons, the bath was constantly perfused with fresh recording medium containing (in mM): 145 NaCl, 3 KCl, 3 CaCl2, 2 MgCl2, 10 HEPES, 8 glucose. Transverse slices (300 μm) were cut on a […] (Leica VT1200S) and maintained in an incubation chamber with aCST containing (in mM): 110 Choline Cl, 2.5 KCl, 0.5 CaCl2, 7 MgCl2, 1.3 NaH2PO4, 25 NaHCO3, 10 glucose. Slice recording medium contained (in mM): 125 NaCl, 2.5 KCl, 2 CaCl2, 1.3 MgCl2, 1.3 NaH2PO4, 25 NaHCO3, 10 glucose. Recordings were made with an Axon 700B patch-clamp amplifier and 1320A interface (Axon Instruments). Signals were filtered at 2 kHz using amplifier circuitry, sampled at 10 kHz, and analyzed using Clampex 10.2 (Axon Instruments).
Photostimulation was delivered by mercury lamp (75 mW) with a GFP excitation bandpass filter and light pulses were generated by Maste-8 (A.M.P.I.) through a high-speed shutter (UNIBLITZ), the power density of the blue light (Boyden, E. S., et al. (2005). Nat Neurosci 8, 1263-1268) (Nagel, G., et al. (2003). Proc Natl Acad Sci USA 100, 13940-13945) was 8-12 mW·mm−2, measured with a power meter (Coherent Instruments).
The percentage of neurons receiving sPSCs increased from 33.3% at eight WPD (n=12) to 82.1% at 12 WPD (n=28, FIG. 6C). To confirm that GABAergic neurons were able to send outputs to neighboring neurons, we transfected half of the neurons with Synapsin promoter—Channelrhodopsin2-EYFP (ChR2-EYFP) by lentiviral infection. […] The reversal potential of light-evoked PSCs was −32.7 mV (FIGS. 6F and 6G), close to the expected Cl-reversal potential under our recording conditions [−37.3 mV=−53.4 mV (by Nernst equation)±16.1 mV (junction potential)]. […]

Data set [2] concerns spontaneous PSCs recorded from hESC-derived neurons post-injection. Kind of data set: Whole-cell recording of spontaneous PSCs of transplanted hESC-derived neurons in mouse brain slices. The class given is cell-based, human. Conditions: mouse brain slices 7 MPI. The protocol: as §1
To examine whether hESC-derived MGE-like cells could develop into functional interneurons that synaptically integrate in vivo, we performed whole-cell recordings of RFP+ human cells in mouse brain slices seven MPI. […]
FIG. 7. hESC-derived MGE-like Interneuron Precursor Cell Maturation and Functional Integration in the Mouse Brain. • (A) Day 35 ML cultures FACS-sorted for NKX2.1-GFP and PSA-NCAM, and injected into newborn mouse cortex. […] Scale Bar: 50 μm. • (D-E) Quantification of histology at 2 (black), 4 (orange), and 7 (blue) MPI, and of SST, CALB, and CALR (E). […] Inset: RFP fluorescence of filled neuron 7 MPI. […]

Data set [3] concerns hESC-derived cultures. Kind of data set: Cells expressing telencephalic FOXG1 in hESC-derived cultures. The format is cell-based, human. The protocol:
Cultured cells were fixed in 4% paraformaldehyde for 10-20 min. Mouse brains were fixed overnight-4° C. after trans-cardial perfusion and sectioned (50 μm) by vibratome or sliding microtome. EBs and human tissue were sectioned (25 μm) by cryostat. Cells and sections were stained: 5-10 min antigen retrieval with boiling 0.01M citrate buffer pH=6, 1 hr block with 5% serum and 0.1% triton X100 in PBS, overnight-4° C. primary antibody in block buffer (except triton-free buffer used for GABA antibody), wash 3× in PBS+tritonX100, 2 hr secondary antibody (Invitrogen), wash 4× in PBS+tritoriX100.
(§2) SHH pathway activation was required for NKX2,1-GFP+ cell derivation. In this study, we used 1-2 μM of purmorphamine or 500 ng/mL of SHH. […] Addition of an FGF inhibitor (PD173074) from the onset of differentiation (d0-25) caused a decrease in cells expressing FOXG1 (55%), but addition of the same inhibitor on day 14 (d14-25) had no effect on FOXG1 levels (not shown). Therefore, similar to fetal forebrain development, early inhibition of WNT and activation of FGF signaling pathways, along with SHH activation, play roles in patterning the ventral-telencephalic-like identity of hESC-derived cultures.

For data set [4], the system named is hESC-derived cultures. Put plainly: Viability of differentiating hESC cultures. The class given is cell-based, human. Conditions: 2-6 μM purmorphamine. The protocol: as §2
Cost-effective cell production methods will be preferred over lengthy protocols and expensive recombinant protein-based reagents, and cryopreservation of cells will facilitate future work. Here, we used 3 small molecules (Y27632, SB431542, and purmorphamine) and 2 recombinant proteins (BMPRIA-Fc and DKK1). Several small molecule substitutes now exist for inhibition of BMP and WNT pathways. […] In addition, ˜25% of hESC-derived MGE-like cells were viable after cryopreservation and thawing, and thawed cells matured into neurons with functional properties as confirmed by electrophysiology.

The test system of data set [5] is HES-3 NKX2.1GFP/w hESCs. Put plainly: NKX2.1-GFP+ differentiation efficiency of hESCs by FACS / flow cytometry. The class given is cell-based, human. As to conditions: for NKX2.1-GFP+ MGE precursor-like cell efficiency: KSR/B27 media. The procedure:
HES-3 hESCs were maintained on irradiated mouse embryonic fibroblasts (Millipore) in knockout DMEM with 20% knockout serum replacement, 1% nonessential amino acids (NEAA), 1% pen-strep-glutamine, 0.0008% 2-mercaptoethanol, and 10 ng/mL FGF-basic (Invitrogen), Differentiation was initiated by CollagenaseIV/Dispase (1 mg/mL each; Invitrogen) preferential selection for hESC colonies. Colonies were trypsinized to single cells, and, as described (Eiraku, M., et al. (2008). Cell Stem Cell 3, 519-532), ˜10,000 cells/well were plated into low-attachment round-bottom 96-well plates (Corning or NOF) to form one sEB/well in optimized B27+5F; differentiation medium #1, consisting of Neurobasal-A, 2% B27-vitamin A (Invitrogen), and the same supplements in hESC media but without FGF. Also, Y27632 (10 μM), SB3431542 (10 μM), Purmorphamine (1-2 μM) (Stemgent), BMPRIA-Fc (1.5 μg/mL), and DIKK1 (1 μg/mL) (Invitrogen) were added.
On ˜d7, Y27632 was removed, and sEBs were plated adherent en-bloc onto matrigel (BD Biosciences) coated plates in medium #1. On ˜d14, factors were removed from medium #1 except for Purmorphamine. On ˜d25, aEBs were trypsinized and replated as dissociated monolayer onto matrigel or polyornithine/laminin coated plates. DAPT (10 μM) (Tocris) was added from ˜d27-d30. After FACS sorting on day ˜35, GFP+ cells could be replated (10-25,000 cells/cm2) onto cortical glial cells in medium #1. Glial cells were prepared from newborn mouse cortex, passaged at least 3× with serum to remove mouse neurons, and pre-treated at confluency with Ara-C (5 μM) (Sigma). Every 3-4 days, half of media was replaced with differentiation medium #2: Neurobasal-A, 2% B27+vitamin A, (Invitrogen) and same supplements in medium #1, without factors, except NEAA and Purmorphamine were removed, and BDNF (25 ng/mL) was added (R&D Systems). Media was replaced every 3-4 days.
FACS analysis and sorting was performed on FACS Aria II (BD Biosciences). Cells were gated for live cell DAN exclusion, small scatter size, single cells, NKX2.1-GFP signal, and PSA-NCAM-APC or -PE (Miltenyi Biotech) signal intensity. GFP-negative cells and isotype antibody (Santa Cruz) controls were used. Data was analyzed with Flowjo (Treestar) software. For live cell imaging, differentiation was similar to above, but 5,000 cells/well were plated into Aggrewell-800 plates (Stem Cell Technologies), and sEBs were plated en-bloc on day 4-7. Imaging was performed by time-lapse confocal microscopy with temperature (37° C.) and gas (5% O2, 5% CO2, 90% N2) controls (Leica SP5).
FIG. 24, Bottom Panel: Flow cytometry was used to determine the efficiency of generation of NKX2.1GFP+ MGE precursor cells using the small molecule inhibitors. The efficiency of generation of NKX2.1GFP+ MGE precursor cells was determined as what percent of cells of the cells analyzed were NKX2.1GFP+ MGE precursor cells.
For orientation: In flow cytometry, cells or beads pass a laser one at a time.

Consider `C[N+]1(C)CCc2cc3c(cc2[C@H]1[C@@H]1OC(=O)c2c1ccc1c2OCO1)OCO3.[I-]` [BMI, bicuculline methiodide], for which, in data set [1] (BMI 20 μM, hESC-derived neurons co-cultured with mouse glial cells, eight weeks post-differentiation), the “block of spontaneous post-synaptic currents (sPSC)” value is “fully blocked”. Also, the “block of light-evoked PSCs” value in data set [1] (ChR2-EYFP hESC-derived neurons, blue light, neighboring neurons) is “reversible blockade”. Also, the “block of light-evoked GABAergic-specific PSCs in primary human fetal cortical neurons” value in data set [1] (co-culture seven weeks with ChR2 hESC-derived neurons) is “completely blocked”. Besides, the “block of spontaneous PSCs with slow decay-time” value in data set [2] is on record as “blocked”.

As to `N#Cc1cc2nc(O)c(O)nc2cc1[N+](=O)[O-]` [CNQX, 6-Cyano-2,3-dihydroxy-7-nitro-quinoxaline], the “block of remaining spontaneous PSCs with fast decay-time” value in data set [2] (applied after BMI) is reported as “blocked”.

For `CCN(CC)CCCCNc1ncc2cc(-c3cc(OC)cc(OC)c3)c(NC(=O)NC(C)(C)C)nc2n1` [PD173074], the “cells expressing FOXG1” value in data set [3] (FGF inhibitor added from onset of differentiation (d0-25)) is 55%. In addition, the “effect on FOXG1 levels” value in data set [3] (FGF inhibitor added on day 14 (d14-25)) was “no effect”.

Turning to `c1ccc2c(Oc3nc(Nc4ccc(N5CCOCC5)cc4)c4ncn(C5CCCCC5)c4n3)cccc2c1` [purmorphamine], the “viability of later-stage monolayer cultures” value in data set [4] was “decreased”. Further, in data set [5] (2-6 μM purmorphamine versus 1-2 μM used), the “GFP+ differentiation efficiency in EB cultures” value is on record as “slightly increased”. In addition, the “NKX2.1-GFP+ MGE precursor-like cell efficiency” value was found to be 12% in data set [5] (25-day hybrid method, purmorphamine day 10-25, SB431542, BMPRIA-Fc and DKK1 throughout, FACS); 1.9% in data set [5] (as hybrid method but purmorphamine from day 0-25). In data set [5] (B27 media throughout 25-day protocol, early addition of five factors (Y27632, SB431542, BMPRIA-Fc, DKK1, purmorphamine)), the “NKX2.1-GFP+ MGE precursor cells” value was 70%. The “NKX2.1-GFP+ differentiation efficiency” value in data set [5] (B27 media, early purmorphamine, inhibitors removed after two weeks (d14), protocol extended to day 35, FACS) is “up to 90%”.

B1: DKK1: Dickkopf homolog 1, recombinant protein WNT inhibitor (protein, UniProt O94907 32-266, looked up)
Dickkopf-related protein 1: TLNSVLNSNAIKNLPPPLGGAAGHPGSAVSAAPGILYPGGNKYQTIDNYQPYPCAEDEECGTDEYCASPTRGGDAGVQICLACRKRRKRCMRHAMCCPGNYCKNGICVSSDQNHFRGEIEETITESFGNDHSTLDGYSRRTTLSSKMYHTKGQEGSVCLRSSDCASGLCCARHFWSKICKPVLKEGQVCTKHRRKGSHGLEIFQRCYCGEGLSCRIQKDHHQASNSSRLHTCQRH
On to B1, for which the “number of cells expressing telencephalic FOXG1” value in data set [3] (DKK1 WNT inhibitor absent) amounted to 45%; in data set [3] (with DKK1 WNT inhibitor) it was 70%. Also, in data set [5] (DKK1 WNT inhibitor absent versus present), the “GFP+ cell differentiation efficiency” value is reported as “similar”.

Source of the values: US11884932B2, “In vitro production of medial ganglionic eminence precursor cells” (The Regents of the University of California, priority 2013, dated 2024).
